US20240239752A1, “BICYCLIC HETEROAROMATIC INHIBITORS OF KLK5” (BioCryst Pharmaceuticals, Inc., priority 2021, published 2024)

molecular target: T1, recombinant human KLK5 (Homo sapiens, UniProt Q9Y337); assay: Kallikrein (KLK) 5 enzymatic assay (Boc-VPR-AMC fluorogenic substrate); assay type: biochemical; details: recombinant human KLK5 0.1 μg/well, Boc-VPR-AMC 100 μM, pH 7.5, room temperature, 1% DMSO; tested a minimum of three times
T1 construct: purchased Novoprotein or R&D Systems C415 or 1108-SE
T1 sequence (Q9Y337 23-293): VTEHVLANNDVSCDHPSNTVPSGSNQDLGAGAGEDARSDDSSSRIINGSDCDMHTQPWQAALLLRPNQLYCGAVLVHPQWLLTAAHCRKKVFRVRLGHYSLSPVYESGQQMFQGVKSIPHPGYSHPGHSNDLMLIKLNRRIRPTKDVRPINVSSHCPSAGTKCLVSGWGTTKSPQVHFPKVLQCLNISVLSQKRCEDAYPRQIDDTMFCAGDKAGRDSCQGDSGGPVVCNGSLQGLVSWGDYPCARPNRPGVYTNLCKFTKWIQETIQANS
Procedure, shortened: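 Recombinant human KLK5 (0.1 μg/well) was preincubated with compound at room temperature in 0.1 M NaH2PO4, pH 7.5, 1% DMSO, then started with 100 μM Boc-VPR-AMC. The rate was followed at 380/460 nm, and IC50 came from percent inhibition relative to enzyme alone, with at least three runs.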

Row | Compound | IC50 [nM]
1 | CC(C)(C)OC(=O)NC1CC(n2nc3ccc(-c4cccc5c(N)nccc45)cc3c2COc2ccccc2CC(=O)O)C1 (stereo not drawn) [Compound 135f, 2-(2-((5-(1-aminoisoquinolin-5-yl)-2-(3-(tert-butoxycarbonylamino)cyclobutyl)-2H-indazol-3-yl)methoxy)phenyl)acetic acid] | < 1000
2 | CC(C)(C)OC(=O)NC1CC(n2nc3ccc(-c4ccc5ccnc(N)c5c4)cc3c2COc2ccccc2CC(=O)O)C1 (stereo not drawn) [Compound 137b, 2-(2-((5-(1-aminoisoquinolin-7-yl)-2-(3-(tert-butoxycarbonylamino)cyclobutyl)-2H-indazol-3-yl)methoxy)phenyl)acetic acid] | 1000 to 10000
3 | Nc1nccc2ccc(-c3ccc4nn(C5CC(N)C5)c(COc5ccccc5CC(=O)O)c4c3)cc12 (stereo not drawn) [Compound 138b, 2-(2-((2-(3-aminocyclobutyl)-5-(1-aminoisoquinolin-7-yl)-2H-indazol-3-yl)methoxy)phenyl)acetic acid] | 1000 to 10000
4 | CC(C)(C)OC(=O)N1CC(Cn2nc3ccc(-c4cccc5c(N)nccc45)cc3c2COc2ccccc2CC(=O)O)C1 [Compound 139f, 2-(2-((5-(1-aminoisoquinolin-5-yl)-2-((1-(tert-butoxycarbonyl)azetidin-3-yl)methyl)-2H-indazol-3-yl)methoxy)phenyl)acetic acid] | < 1000
5 | Nc1nccc2c(-c3ccc4nn(CC5CNC5)c(COc5ccccc5CC(=O)O)c4c3)cccc12 [Compound 140b, 2-(2-((5-(1-aminoisoquinolin-5-yl)-2-(azetidin-3-ylmethyl)-2H-indazol-3-yl)methoxy)phenyl)acetic acid] | 1000 to 10000
6 | CC(C)(C)OC(=O)N1CC(Cn2nc3ccc(-c4ccc5ccnc(N)c5c4)cc3c2COc2ccccc2CC(=O)O)C1 [Compound 141b, 2-(2-((5-(1-aminoisoquinolin-7-yl)-2-((1-(tert-butoxycarbonyl)azetidin-3-yl)methyl)-2H-indazol-3-yl)methoxy)phenyl)acetic acid] | 1000 to 10000
7 | CC(C)(C)OC(=O)N1CC(n2nc(COc3ccccc3CC(=O)O)c3cc(-c4cccc5c(N)nccc45)ccc32)C1 [Compound 142b, 2-(2-((5-(1-aminoisoquinolin-5-yl)-1-(1-(tert-butoxycarbonyl)azetidin-3-yl)-1H-indazol-3-yl)methoxy)phenyl)acetic acid] | < 1000
8 | Nc1nccc2ccc(-c3ccc4nn(C5CCC5)c(COc5cc(F)ccc5CC(=O)O)c4c3)cc12 [Compound 149d, 2-(2-((5-(1-aminoisoquinolin-7-yl)-2-cyclobutyl-2H-indazol-3-yl)methoxy)-4-fluorophenyl)acetic acid] | 1000 to 10000
9 | Nc1nccc2ccc(-c3ccc4nn(C5CCC5)c(COc5cc(C(F)(F)F)ccc5CC(=O)O)c4c3)cc12 [Compound 151d, 2-(2-((5-(1-aminoisoquinolin-7-yl)-2-cyclobutyl-2H-indazol-3-yl)methoxy)-4-(trifluoromethyl)phenyl)acetic acid] | > 10000
10 | Nc1nccc2c(-c3ccc4nn(C5CCC5)c(COc5cc(C(F)(F)F)ccc5CC(=O)O)c4c3)cccc12 [Compound 152b, 2-(2-((5-(1-aminoisoquinolin-5-yl)-2-cyclobutyl-2H-indazol-3-yl)methoxy)-4-(trifluoromethyl)phenyl)acetic acid] | 1000 to 10000
11 | Nc1nccc2ccc(-c3ccc4nn(C5CCC5)c(COc5cc(OC(F)(F)F)ccc5CC(=O)O)c4c3)cc12 [Compound 153d, 2-(2-((5-(1-aminoisoquinolin-7-yl)-2-cyclobutyl-2H-indazol-3-yl)methoxy)-4-(trifluoromethoxy)phenyl)acetic acid] | > 10000
12 | Nc1nccc2c(-c3ccc4nn(C5CCC5)c(COc5cc(OC(F)(F)F)ccc5CC(=O)O)c4c3)cccc12 [Compound 154b, 2-(2-((5-(1-aminoisoquinolin-5-yl)-2-cyclobutyl-2H-indazol-3-yl)methoxy)-4-(trifluoromethoxy)phenyl)acetic acid] | 1000 to 10000
13 | Cc1ccc(OCc2c3cc(-c4ccc5ccnc(N)c5c4)ccc3nn2C2CCC2)c(CC(=O)O)c1 [Compound 155d, 2-(2-((5-(1-aminoisoquinolin-7-yl)-2-cyclobutyl-2H-indazol-3-yl)methoxy)-5-methylphenyl)acetic acid] | 1000 to 10000
14 | Cc1ccc(OCc2c3cc(-c4cccc5c(N)nccc45)ccc3nn2C2CCC2)c(CC(=O)O)c1 [Compound 156b, 2-(2-((5-(1-aminoisoquinolin-5-yl)-2-cyclobutyl-2H-indazol-3-yl)methoxy)-5-methylphenyl)acetic acid] | 1000 to 10000
15 | COc1ccc(OCc2c3cc(-c4ccc5ccnc(N)c5c4)ccc3nn2C2CCC2)c(CC(=O)O)c1 [Compound 157d, 2-(2-((5-(1-aminoisoquinolin-7-yl)-2-cyclobutyl-2H-indazol-3-yl)methoxy)-5-methoxyphenyl)acetic acid] | 1000 to 10000
16 | COc1ccc(OCc2c3cc(-c4cccc5c(N)nccc45)ccc3nn2C2CCC2)c(CC(=O)O)c1 [Compound 158b, 2-(2-((5-(1-aminoisoquinolin-5-yl)-2-cyclobutyl-2H-indazol-3-yl)methoxy)-5-methoxyphenyl)acetic acid] | 1000 to 10000
17 | Cc1cccc(CC(=O)O)c1OCc1nn(C2CCC2)c2ccc(-c3ccc4ccnc(N)c4c3)cc12 [Compound 159g, 2-(2-((5-(1-aminoisoquinolin-7-yl)-1-cyclobutyl-1H-indazol-3-yl)methoxy)-3-methylphenyl)acetic acid] | 1000 to 10000
18 | Cc1cccc(CC(=O)O)c1OCc1nn(C2CCC2)c2ccc(-c3cccc4c(N)nccc34)cc12 [Compound 160b, 2-(2-((5-(1-aminoisoquinolin-5-yl)-1-cyclobutyl-1H-indazol-3-yl)methoxy)-3-methylphenyl)acetic acid] | 1000 to 10000

Other lines, results leading:

Row | IC50 [nM] | Compound
19 | < 1000 | COCCN1CCC(n2nc3ccc(-c4cccc5c(N)nccc45)cc3c2COc2ccccc2CC(=O)O)CC1 [Compound 134c, 2-(2-((5-(1-aminoisoquinolin-5-yl)-2-(1-(2-methoxyethyl)piperidin-4-yl)-2H-indazol-3-yl)methoxy)phenyl)acetic acid]
20 | 1000 to 10000 | Nc1nccc2c(-c3ccc4nn(C5CC(N)C5)c(COc5ccccc5CC(=O)O)c4c3)cccc12 (stereo not drawn) [Compound 136b, 2-(2-((2-(3-aminocyclobutyl)-5-(1-aminoisoquinolin-5-yl)-2H-indazol-3-yl)methoxy)phenyl)acetic acid]
21 | < 1000 | COCCN1CC(n2nc(COc3ccccc3CC(=O)O)c3cc(-c4cccc5c(N)nccc45)ccc32)C1 [Compound 143d, 2-(2-((5-(1-aminoisoquinolin-5-yl)-1-(1-(2-methoxyethyl)azetidin-3-yl)-1H-indazol-3-yl)methoxy)phenyl)acetic acid]
22 | < 1000 | CC(C)CCN1CC(n2nc(COc3ccccc3CC(=O)O)c3cc(-c4cccc5c(N)nccc45)ccc32)C1 [Compound 144c, 2-(2-((5-(1-aminoisoquinolin-5-yl)-1-(1-isopentylazetidin-3-yl)-1H-indazol-3-yl)methoxy)phenyl)acetic acid]
23 | < 1000 | COCCN1CC(n2nc(COc3ccccc3CC(=O)O)c3cc(-c4ccc5ccnc(N)c5c4)ccc32)C1 [Compound 145b, 2-(2-((5-(1-aminoisoquinolin-7-yl)-1-(1-(2-methoxyethyl)azetidin-3-yl)-1H-indazol-3-yl)methoxy)phenyl)acetic acid]
24 | < 1000 | CC(C)CCN1CC(n2nc(COc3ccccc3CC(=O)O)c3cc(-c4ccc5ccnc(N)c5c4)ccc32)C1 [Compound 146b, 2-(2-((5-(1-aminoisoquinolin-7-yl)-1-(1-isopentylazetidin-3-yl)-1H-indazol-3-yl)methoxy)phenyl)acetic acid]
25 | < 1000 | Nc1nccc2c(-c3ccc4c(c3)c(COc3ccccc3CC(=O)O)nn4C3CN(CCO)C3)cccc12 [Compound 147c, 2-(2-((5-(1-aminoisoquinolin-5-yl)-1-(1-(2-hydroxyethyl)azetidin-3-yl)-1H-indazol-3-yl)methoxy)phenyl)acetic acid]
26 | < 1000 | Nc1nccc2ccc(-c3ccc4c(c3)c(COc3ccccc3CC(=O)O)nn4C3CN(CCO)C3)cc12 [Compound 148b, 2-(2-((5-(1-aminoisoquinolin-7-yl)-1-(1-(2-hydroxyethyl)azetidin-3-yl)-1H-indazol-3-yl)methoxy)phenyl)acetic acid]
27 | < 1000 | Nc1nccc2c(-c3ccc4nn(C5CCC5)c(COc5cc(F)ccc5CC(=O)O)c4c3)cccc12 [Compound 150b, 2-(2-((5-(1-aminoisoquinolin-5-yl)-2-cyclobutyl-2H-indazol-3-yl)methoxy)-4-fluorophenyl)acetic acid]
28 | < 1000 | Cc1cccc(OCc2nn(C3CCC3)c3ccc(-c4ccc5ccnc(N)c5c4)cc23)c1CC(=O)O [Compound 161c, 2-(2-((5-(1-aminoisoquinolin-7-yl)-1-cyclobutyl-1H-indazol-3-yl)methoxy)-6-methylphenyl)acetic acid]
29 | < 1000 | Cc1cccc(OCc2nn(C3CCC3)c3ccc(-c4cccc5c(N)nccc45)cc23)c1CC(=O)O [Compound 162b, 2-(2-((5-(1-aminoisoquinolin-5-yl)-1-cyclobutyl-1H-indazol-3-yl)methoxy)-6-methylphenyl)acetic acid]
30 | < 1000 | Cc1ccc(CC(=O)O)c(OCc2nn(C3CCC3)c3ccc(-c4cccc5c(N)nccc45)cc23)c1 [Compound 163c, 2-(2-((5-(1-aminoisoquinolin-5-yl)-1-cyclobutyl-1H-indazol-3-yl)methoxy)-4-methylphenyl)acetic acid]
